Positions count from the first letter of the chain named. Where a SMILES comes first, the peptide text is derived from it. Bridges are numbered along the chain shown (N, C = ends).
How the values were obtained:
Experiment in all cases: cAMP accumulation
Format in all cases: cell-based
Conditions in all cases: mean ± S.E.M.; for Emax: cAMP maximal response, SEM; for EC50: cAMP, CV1-FlpIn cells, 30 min, IBMX
[1] = target: T1, hCTR T295A (Homo sapiens, UniProt P30988, T295A)
T1 construct: c-Myc (N); expressed in transfected cells
T1 sequence (P30988 25-474 T295A): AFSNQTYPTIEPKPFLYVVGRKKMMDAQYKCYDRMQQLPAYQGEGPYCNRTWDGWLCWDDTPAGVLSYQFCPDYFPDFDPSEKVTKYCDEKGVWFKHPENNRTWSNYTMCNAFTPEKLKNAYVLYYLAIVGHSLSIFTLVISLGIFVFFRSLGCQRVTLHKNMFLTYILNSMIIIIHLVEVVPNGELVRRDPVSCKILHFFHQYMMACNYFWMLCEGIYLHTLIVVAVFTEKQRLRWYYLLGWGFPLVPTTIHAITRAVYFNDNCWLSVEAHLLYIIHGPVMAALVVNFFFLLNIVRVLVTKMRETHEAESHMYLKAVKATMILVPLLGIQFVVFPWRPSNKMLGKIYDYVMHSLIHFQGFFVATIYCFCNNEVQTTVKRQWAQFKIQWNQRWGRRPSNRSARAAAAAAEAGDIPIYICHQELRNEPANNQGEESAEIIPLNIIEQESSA
Summary of the method: (§1)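 For each mutant, cAMP generated during a 30 min ligand exposure with IBMX is reported as a fraction of the 100 μM forskolin maximum. Cells were ethanol-extracted and dried at room temperature prior to measurement.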

[2] = target: T2, hCTR H296A (Homo sapiens, UniProt P30988, H296A)
T2 construct: c-Myc (N); expressed in transfected cells
T2 sequence (P30988 25-474 H296A): T1 sequence (P30988 25-474 T295A) with A271T, H272A
Summary of the method: as §1

[3] = target: T3, hCTR M376A (Homo sapiens, UniProt P30988, M376A)
T3 construct: c-Myc (N); expressed in transfected cells
T3 sequence (P30988 25-474 M376A): T1 sequence (P30988 25-474 T295A) with A271T, M352A
Summary of the method: as §1

[4] = target: T4, hCTR Y299A (Homo sapiens, UniProt P30988, Y299A)
T4 construct: c-Myc (N); expressed in transfected cells
T4 sequence (P30988 25-474 Y299A): T1 sequence (P30988 25-474 T295A) with A271T, Y275A
Summary of the method: as §1

[5] = target: T5, hCTR Y374A (Homo sapiens, UniProt P30988, Y374A)
T5 construct: c-Myc (N); expressed in transfected cells
T5 sequence (P30988 25-474 Y374A): T1 sequence (P30988 25-474 T295A) with A271T, Y350A
Summary of the method: as §1

| SMILES | Emax [1] | EC50 [1] | Emax [2] | EC50 [2] | Emax [3] | EC50 [3] | Emax [4] | EC50 [4] | Emax [5] | EC50 [5] |
| --- | --- | --- | --- | --- | --- | --- | --- | --- | --- | --- |
| CC(C)C[C@H](NC(=O)CNC(=O)[C@H](C)NC(=O)[C@H](CC(C)C)NC(=O)[C@H](CCCNC(=N)N)NC(=O)[C@H](Cc1cnc[nH]1)NC(=O)[C@@H](NC(=O)[C@@H](NC(=O)[C@@H]1CSSC[C@H](NC(=O)[C@H](C)N)C(=O)N[C@@H](CC(=O)O)C(=O)N[C@@H]([C@@H](C)O)C(=O)N[C@@H](C)C(=O)N[C@@H]([C@@H](C)O)C(=O)N1)C(C)C)[C@@H](C)O)C(=O)N[C@@H](CC(C)C)C(=O)N[C@@H](CO)C(=O)N[C@@H](CCCNC(=N)N)C(=O)N[C@@H](CO)C(=O)NCC(=O)NCC(=O)N[C@H](C(=O)N[C@H](C(=O)N[C@@H](CCCCN)C(=O)N[C@@H](CC(N)=O)C(=O)N[C@@H](CC(N)=O)C(=O)N[C@@H](Cc1ccccc1)C(=O)N[C@H](C(=O)N1CCC[C@H]1C(=O)N[C@H](C(=O)N[C@@H](CC(N)=O)C(=O)N[C@H](C(=O)NCC(=O)N[C@@H](CO)C(=O)N[C@@H](CCCCN)C(=O)N[C@@H](C)C(=O)N[C@@H](Cc1ccccc1)C(N)=O)C(C)C)[C@@H](C)O)C(C)C)C(C)C)C(C)C [hαCGRP] | 79 ± 20% | 107 nM | 106 ± 18% | 14.1 nM | 47 ± 7% | 141 nM | 62 ± 16% | 33.1 nM | 82 ± 12% | 25.1 nM |
| CC[C@H](C)[C@H](NC(=O)[C@H](C)NC(=O)[C@@H](NC(=O)[C@H](CCC(N)=O)NC(=O)[C@@H]1CCCN1C(=O)[C@H](Cc1ccccc1)NC(=O)[C@@H](NC(=O)[C@H](Cc1c[nH]cn1)NC(=O)[C@H](Cc1ccccc1)NC(=O)[C@H](CCCCN)NC(=O)[C@H](CC(N)=O)NC(=O)[C@H](Cc1ccccc1)NC(=O)[C@H](CC(=O)O)NC(=O)[C@H](CCC(N)=O)NC(=O)[C@@H](NC(=O)[C@H](Cc1ccc(O)cc1)NC(=O)[C@@H](NC(=O)CNC(=O)[C@H](CC(C)C)NC(=O)[C@H](CCSC)NC(=O)[C@@H]1CSSC[C@H](N)C(=O)NCC(=O)N[C@@H](CC(N)=O)C(=O)N[C@@H](CC(C)C)C(=O)N[C@@H](CO)C(=O)N[C@@H]([C@@H](C)O)C(=O)N1)[C@@H](C)O)[C@@H](C)O)[C@@H](C)O)[C@@H](C)O)C(=O)NCC(=O)N[C@H](C(=O)NCC(=O)N[C@@H](C)C(=O)N1CCC[C@H]1C(N)=O)C(C)C [hCT] | 127 ± 11% |  | 87 ± 4% |  | 84.3 ± 10% |  | 133 ± 9% |  | 83.2 ± 5% |  |
| CC(C)C[C@H](NC(=O)[C@H](CC(N)=O)NC(=O)[C@H](CC(N)=O)NC(=O)[C@H](CO)NC(=O)[C@H](CO)NC(=O)[C@H](CCCNC(=N)N)NC(=O)[C@@H](NC(=O)[C@H](CC(C)C)NC(=O)[C@H](Cc1ccccc1)NC(=O)[C@H](CC(N)=O)NC(=O)[C@H](C)NC(=O)[C@H](CC(C)C)NC(=O)[C@H](CCCNC(=N)N)NC(=O)[C@H](CCC(N)=O)NC(=O)[C@@H](NC(=O)[C@H](C)NC(=O)[C@@H]1CSSC[C@H](NC(=O)[C@@H](N)CCCCN)C(=O)N[C@@H](CC(N)=O)C(=O)N[C@@H]([C@@H](C)O)C(=O)N[C@@H](C)C(=O)N[C@@H]([C@@H](C)O)C(=O)N1)[C@@H](C)O)C(C)C)C(=O)NCC(=O)N1CCC[C@H]1C(=O)N[C@H](C(=O)N[C@@H](CC(C)C)C(=O)N1CCC[C@H]1C(=O)N1CCC[C@H]1C(=O)N[C@H](C(=O)N[C@@H](CC(N)=O)C(=O)N[C@H](C(=O)NCC(=O)N[C@@H](CO)C(=O)N[C@@H](CC(N)=O)C(=O)N[C@H](C(=O)N[C@@H](Cc1ccc(O)cc1)C(N)=O)[C@@H](C)O)C(C)C)[C@@H](C)O)C(C)C [rAmy] | 74 ± 19% |  | 107 ± 18% |  | 85 ± 13% |  | 102 ± 1% |  | 92 ± 9% |  |
| CSCC[C@H](NC(=O)CNC(=O)[C@H](CO)NC(=O)[C@H](Cc1ccccc1)NC(=O)[C@H](CCCNC(=N)N)NC(=O)[C@H](Cc1c[nH]cn1)NC(=O)[C@H](Cc1ccccc1)NC(=O)[C@H](CC(N)=O)NC(=O)[C@H](CC(N)=O)NC(=O)[C@H](CC(C)C)NC(=O)[C@H](CC(N)=O)NC(=O)[C@H](CCCNC(=N)N)NC(=O)[C@H](Cc1c[nH]c2ccccc12)NC(=O)[C@H](Cc1ccc(O)cc1)NC(=O)[C@H](C)NC(=O)[C@H](CO)NC(=O)[C@H](CC(C)C)NC(=O)[C@@H](NC(=O)[C@@H]1CSSC[C@H](N)C(=O)N[C@@H](CO)C(=O)N[C@@H](CC(N)=O)C(=O)N[C@@H](CC(C)C)C(=O)N[C@@H](CO)C(=O)N[C@@H]([C@@H](C)O)C(=O)N1)C(C)C)C(=O)NCC(=O)N[C@@H](Cc1ccccc1)C(=O)NCC(=O)N1CCC[C@H]1C(=O)N[C@@H](CCC(=O)O)C(=O)N[C@H](C(=O)N1CCC[C@H]1C(N)=O)[C@@H](C)O [pCT] (H-CSNLSTCVLSAYWRNLNNFHRFSGMGFGPETP-NH2; disulfide 1-7) | 123 ± 8% | 0.282 nM | 96 ± 8% | 0.0316 nM | 87 ± 11% | 0.234 nM | 117 ± 9% | 0.135 nM | 90 ± 9% | 0.02 nM |
| CC(C)C[C@H](NC(=O)[C@H](CCCCN)NC(=O)CNC(=O)[C@H](CC(C)C)NC(=O)[C@@H](NC(=O)[C@@H]1CSSC[C@H](N)C(=O)N[C@@H](CO)C(=O)N[C@@H](CC(N)=O)C(=O)N[C@@H](CC(C)C)C(=O)N[C@@H](CO)C(=O)N[C@@H]([C@@H](C)O)C(=O)N1)C(C)C)C(=O)N[C@@H](CO)C(=O)N[C@@H](CCC(N)=O)C(=O)N[C@@H](CCC(=O)O)C(=O)N[C@@H](CC(C)C)C(=O)N[C@@H](Cc1c[nH]cn1)C(=O)N[C@@H](CCCCN)C(=O)N[C@@H](CC(C)C)C(=O)N[C@@H](CCC(N)=O)C(=O)N[C@H](C(=O)N[C@@H](Cc1ccc(O)cc1)C(=O)N1CCC[C@H]1C(=O)N[C@@H](CCCNC(=N)N)C(=O)N[C@H](C(=O)N[C@@H](CC(N)=O)C(=O)N[C@H](C(=O)NCC(=O)N[C@@H](CO)C(=O)NCC(=O)N[C@H](C(=O)N1CCC[C@H]1C(N)=O)[C@@H](C)O)[C@@H](C)O)[C@@H](C)O)[C@@H](C)O [sCT] | 138 ± 13% |  | 86 ± 5% |  | 102 ± 6% |  | 110 ± 7% |  | 96 ± 5% |  |

Source: article PMC5908784, “Extracellular loops 2 and 3 of the calcitonin receptor selectively modify agonist binding and efficacy” (Biochemical Pharmacology, 2018)
